# Experimental data as given in the kinase profiling compilation of Christmann-Franck et al. (2016).
# Key:
# Assay in all cases: KINOMEscan competition binding
# Conditions in all cases: compound 10.0 µM
# ACVRL1 (human) = ACVRL1 (human) (UniProt P37023)
# AKT2 (human) = AKT2 (human) (UniProt P31751)
# AURKC (human) = AURKC (human) (UniProt Q9UQB9)
# CDC42BPG (human) = CDC42BPG (human) (UniProt Q6DT37)
# CDK13 (human) = CDK13 (human) (UniProt Q14004)
# CDK2 (human) = CDK2 (human) (UniProt P24941)
# CDK3 (human) = CDK3 (human) (UniProt Q00526)
# CDKL5 (human) = CDKL5 (human) (UniProt O76039)
# CSK (human) = CSK (human) (UniProt P41240)
# CSNK2A2 (human) = CSNK2A2 (human) (UniProt P19784)
# DMPK (human) = DMPK (human) (UniProt Q09013)
# EPHA4 (human) = EPHA4 (human) (UniProt P54764)
# FER (human) = FER (human) (UniProt P16591)
# [1] = tested on: FLT3 (human), P36888 [D835Y]
# [2] = tested on: FLT3 (human), P36888 [K663Q]
# HIPK2 (human) = HIPK2 (human) (UniProt Q9H2X6)
# INSRR (human) = INSRR (human) (UniProt P14616)
# IRAK3 (human) = IRAK3 (human) (UniProt Q9Y616)
# MAP2K1 (human) = MAP2K1 (human) (UniProt Q02750)
# MAP2K4 (human) = MAP2K4 (human) (UniProt P45985)
# MAP3K12 (human) = MAP3K12 (human) (UniProt Q12852)
# MAP3K6 (human) = MAP3K6 (human) (UniProt O95382)
# MUSK (human) = MUSK (human) (UniProt O15146)
# MYO3B (human) = MYO3B (human) (UniProt Q8WXR4)
# NTRK3 (human) = NTRK3 (human) (UniProt Q16288)
# PHKG2 (human) = PHKG2 (human) (UniProt P15735)
# PIK3C2B (human) = PIK3C2B (human) (UniProt O00750)
# PLK4 (human) = PLK4 (human) (UniProt O00444)
# PRKACA (human) = PRKACA (human) (UniProt P17612)
# PRKCH (human) = PRKCH (human) (UniProt P24723)
# [3] = tested on: RET (human), P07949 [V804M]
# RIPK1 (human) = RIPK1 (human) (UniProt Q13546)
# RPS6KB1 (human) = RPS6KB1 (human) (UniProt P23443)
# SIK3 (human) = SIK3 (human) (UniProt Q9Y2K2)
# SLK (human) = SLK (human) (UniProt Q9H2G2)
# SNRK (human) = SNRK (human) (UniProt Q9NRH2)
# VRK2 (human) = VRK2 (human) (UniProt Q86Y07)
# CPK1 (P.falciparum) = tested on: CPK1 (P.falciparum)
# CSNK1G2 (human) = CSNK1G2 (human) (UniProt P78368)
# [4] = tested on: PIK3CA (human), P42336 [M1043I]
# [5] = tested on: PIK3CA (human), P42336 [Q546K]
# PLK4 (human), sequence (O00444 whole entry, looked up): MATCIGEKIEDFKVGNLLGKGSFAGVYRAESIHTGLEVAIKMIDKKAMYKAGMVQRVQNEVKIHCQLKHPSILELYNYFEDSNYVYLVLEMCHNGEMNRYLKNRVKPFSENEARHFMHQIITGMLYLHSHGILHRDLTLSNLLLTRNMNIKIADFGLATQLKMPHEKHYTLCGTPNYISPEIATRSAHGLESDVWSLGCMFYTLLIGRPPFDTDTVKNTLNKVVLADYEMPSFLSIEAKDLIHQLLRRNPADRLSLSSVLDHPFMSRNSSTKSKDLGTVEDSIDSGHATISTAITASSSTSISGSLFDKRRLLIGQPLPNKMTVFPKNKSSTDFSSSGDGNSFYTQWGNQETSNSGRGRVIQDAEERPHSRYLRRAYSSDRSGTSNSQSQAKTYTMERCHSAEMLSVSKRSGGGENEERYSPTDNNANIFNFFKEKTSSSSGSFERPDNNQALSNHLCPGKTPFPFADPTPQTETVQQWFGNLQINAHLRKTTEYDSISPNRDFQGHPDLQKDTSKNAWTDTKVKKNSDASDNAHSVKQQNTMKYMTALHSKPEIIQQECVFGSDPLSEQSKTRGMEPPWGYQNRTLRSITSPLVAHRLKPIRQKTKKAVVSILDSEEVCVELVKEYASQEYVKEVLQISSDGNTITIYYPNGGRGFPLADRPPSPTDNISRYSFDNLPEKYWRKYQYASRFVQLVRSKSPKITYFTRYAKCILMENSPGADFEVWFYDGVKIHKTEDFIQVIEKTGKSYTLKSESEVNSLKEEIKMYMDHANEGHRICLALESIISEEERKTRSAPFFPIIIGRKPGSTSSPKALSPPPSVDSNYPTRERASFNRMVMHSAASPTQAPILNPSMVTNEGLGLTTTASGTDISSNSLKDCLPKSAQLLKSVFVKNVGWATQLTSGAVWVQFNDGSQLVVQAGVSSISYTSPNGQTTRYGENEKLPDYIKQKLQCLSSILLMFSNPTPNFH
# SLK (human), sequence (Q9H2G2 whole entry, looked up): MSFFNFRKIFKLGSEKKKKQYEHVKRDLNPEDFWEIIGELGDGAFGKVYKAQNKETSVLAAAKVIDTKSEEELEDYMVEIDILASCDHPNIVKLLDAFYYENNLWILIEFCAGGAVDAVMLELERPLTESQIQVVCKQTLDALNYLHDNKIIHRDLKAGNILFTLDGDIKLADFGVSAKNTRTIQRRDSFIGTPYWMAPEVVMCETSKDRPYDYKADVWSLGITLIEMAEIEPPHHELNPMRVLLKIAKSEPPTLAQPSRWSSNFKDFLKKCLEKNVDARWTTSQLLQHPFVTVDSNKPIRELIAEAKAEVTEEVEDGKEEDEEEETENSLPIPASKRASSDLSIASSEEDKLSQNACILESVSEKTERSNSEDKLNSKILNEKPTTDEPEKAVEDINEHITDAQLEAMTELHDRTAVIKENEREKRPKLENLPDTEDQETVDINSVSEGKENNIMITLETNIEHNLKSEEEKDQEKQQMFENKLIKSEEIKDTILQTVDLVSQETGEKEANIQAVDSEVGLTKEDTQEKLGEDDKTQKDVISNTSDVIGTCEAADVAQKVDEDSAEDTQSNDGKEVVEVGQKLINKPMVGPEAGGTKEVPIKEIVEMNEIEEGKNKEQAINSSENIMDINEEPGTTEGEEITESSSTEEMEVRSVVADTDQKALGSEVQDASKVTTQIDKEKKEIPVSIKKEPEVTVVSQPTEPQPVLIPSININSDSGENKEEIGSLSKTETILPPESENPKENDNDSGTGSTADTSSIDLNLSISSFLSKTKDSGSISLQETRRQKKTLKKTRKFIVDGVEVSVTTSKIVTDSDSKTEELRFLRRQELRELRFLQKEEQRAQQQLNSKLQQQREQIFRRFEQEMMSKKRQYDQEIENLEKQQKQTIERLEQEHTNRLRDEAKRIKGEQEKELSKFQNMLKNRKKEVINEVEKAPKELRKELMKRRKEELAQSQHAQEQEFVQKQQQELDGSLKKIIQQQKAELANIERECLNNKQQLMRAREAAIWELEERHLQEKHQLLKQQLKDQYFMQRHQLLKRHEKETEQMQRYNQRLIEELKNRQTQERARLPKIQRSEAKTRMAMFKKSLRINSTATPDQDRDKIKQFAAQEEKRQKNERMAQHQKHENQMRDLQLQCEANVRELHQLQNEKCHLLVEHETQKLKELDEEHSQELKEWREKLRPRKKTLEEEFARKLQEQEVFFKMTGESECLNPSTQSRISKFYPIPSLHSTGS
# INSRR (human), sequence (P14616 whole entry, looked up): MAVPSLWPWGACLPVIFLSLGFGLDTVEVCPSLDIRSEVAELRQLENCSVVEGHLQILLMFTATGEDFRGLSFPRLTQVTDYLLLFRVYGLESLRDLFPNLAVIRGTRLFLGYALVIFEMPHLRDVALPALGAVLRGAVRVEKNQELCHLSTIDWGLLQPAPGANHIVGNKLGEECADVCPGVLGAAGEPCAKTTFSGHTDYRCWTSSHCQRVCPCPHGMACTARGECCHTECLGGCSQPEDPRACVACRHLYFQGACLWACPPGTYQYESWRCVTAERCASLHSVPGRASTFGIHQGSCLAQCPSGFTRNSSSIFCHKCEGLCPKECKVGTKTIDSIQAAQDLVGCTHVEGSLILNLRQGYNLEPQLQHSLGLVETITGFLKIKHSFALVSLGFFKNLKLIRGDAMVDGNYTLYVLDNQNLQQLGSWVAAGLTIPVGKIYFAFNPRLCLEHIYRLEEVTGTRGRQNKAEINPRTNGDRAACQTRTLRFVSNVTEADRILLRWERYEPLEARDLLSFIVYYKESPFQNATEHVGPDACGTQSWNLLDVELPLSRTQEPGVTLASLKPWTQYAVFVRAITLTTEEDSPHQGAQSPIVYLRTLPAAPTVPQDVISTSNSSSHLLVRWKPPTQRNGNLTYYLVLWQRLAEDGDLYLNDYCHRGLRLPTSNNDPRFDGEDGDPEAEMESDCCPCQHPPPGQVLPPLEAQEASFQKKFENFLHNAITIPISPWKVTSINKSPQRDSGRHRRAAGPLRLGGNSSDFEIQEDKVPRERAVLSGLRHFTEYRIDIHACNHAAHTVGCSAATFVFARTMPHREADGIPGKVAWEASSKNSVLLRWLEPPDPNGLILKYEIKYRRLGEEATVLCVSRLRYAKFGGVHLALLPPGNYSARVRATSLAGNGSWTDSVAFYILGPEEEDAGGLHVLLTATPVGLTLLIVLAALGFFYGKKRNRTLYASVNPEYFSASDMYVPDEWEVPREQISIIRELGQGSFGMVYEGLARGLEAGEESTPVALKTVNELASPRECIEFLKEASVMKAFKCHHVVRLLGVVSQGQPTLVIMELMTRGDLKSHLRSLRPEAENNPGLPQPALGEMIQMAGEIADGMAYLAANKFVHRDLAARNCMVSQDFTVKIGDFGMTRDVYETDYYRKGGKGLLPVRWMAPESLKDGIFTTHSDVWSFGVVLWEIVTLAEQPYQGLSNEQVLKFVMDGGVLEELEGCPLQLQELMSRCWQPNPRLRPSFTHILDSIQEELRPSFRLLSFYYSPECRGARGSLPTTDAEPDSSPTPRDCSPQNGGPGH
# MAP3K12 (human), sequence (Q12852 whole entry, looked up): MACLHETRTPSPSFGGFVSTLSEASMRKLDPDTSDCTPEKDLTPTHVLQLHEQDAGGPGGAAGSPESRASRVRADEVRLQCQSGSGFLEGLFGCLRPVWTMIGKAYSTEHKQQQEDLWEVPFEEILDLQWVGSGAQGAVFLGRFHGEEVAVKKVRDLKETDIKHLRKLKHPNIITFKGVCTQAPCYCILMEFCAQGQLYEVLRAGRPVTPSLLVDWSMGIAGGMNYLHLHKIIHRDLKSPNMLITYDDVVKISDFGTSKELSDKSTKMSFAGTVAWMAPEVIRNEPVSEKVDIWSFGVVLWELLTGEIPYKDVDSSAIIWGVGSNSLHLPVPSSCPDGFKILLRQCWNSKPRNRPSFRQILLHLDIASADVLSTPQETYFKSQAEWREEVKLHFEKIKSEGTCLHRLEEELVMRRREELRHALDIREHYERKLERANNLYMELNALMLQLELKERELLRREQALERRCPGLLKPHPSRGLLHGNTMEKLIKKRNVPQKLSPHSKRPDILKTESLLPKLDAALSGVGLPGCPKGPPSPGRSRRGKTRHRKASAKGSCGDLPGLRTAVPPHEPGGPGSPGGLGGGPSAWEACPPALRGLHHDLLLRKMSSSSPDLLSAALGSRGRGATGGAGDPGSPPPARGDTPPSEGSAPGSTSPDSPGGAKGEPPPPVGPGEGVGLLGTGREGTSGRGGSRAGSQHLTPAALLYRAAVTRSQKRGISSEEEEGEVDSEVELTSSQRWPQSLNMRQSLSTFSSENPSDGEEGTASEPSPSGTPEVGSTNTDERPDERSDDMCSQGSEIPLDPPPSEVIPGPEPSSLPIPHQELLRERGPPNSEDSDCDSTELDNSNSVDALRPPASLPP
# MAP2K4 (human), sequence (P45985 whole entry, looked up): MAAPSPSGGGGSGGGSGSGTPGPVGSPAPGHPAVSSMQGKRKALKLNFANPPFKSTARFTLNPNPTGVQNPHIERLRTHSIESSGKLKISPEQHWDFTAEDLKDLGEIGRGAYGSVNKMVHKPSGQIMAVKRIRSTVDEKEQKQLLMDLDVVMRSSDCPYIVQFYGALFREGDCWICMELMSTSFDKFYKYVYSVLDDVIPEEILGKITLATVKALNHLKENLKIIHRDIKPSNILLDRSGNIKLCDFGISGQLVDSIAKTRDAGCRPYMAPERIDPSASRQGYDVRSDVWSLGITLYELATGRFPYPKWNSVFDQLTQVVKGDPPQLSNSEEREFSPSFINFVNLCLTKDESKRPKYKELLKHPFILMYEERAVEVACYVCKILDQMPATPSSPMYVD
# AURKC (human), sequence (Q9UQB9 whole entry, looked up): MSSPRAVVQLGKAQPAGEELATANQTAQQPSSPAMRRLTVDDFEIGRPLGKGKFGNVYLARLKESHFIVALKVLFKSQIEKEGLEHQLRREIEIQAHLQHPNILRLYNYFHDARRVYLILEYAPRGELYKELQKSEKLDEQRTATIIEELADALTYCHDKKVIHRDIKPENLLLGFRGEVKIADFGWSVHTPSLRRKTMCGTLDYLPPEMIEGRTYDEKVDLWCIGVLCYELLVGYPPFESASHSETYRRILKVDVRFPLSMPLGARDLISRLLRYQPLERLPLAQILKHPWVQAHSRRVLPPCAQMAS
structure (smiles),measurement,setting,value
CC(C)n1nc(-c2cc3cc(O)ccc3[nH]2)c2c(N)ncnc21,"kinase still bound, per cent of control",ACVRL1 (human),6.7%
same,"kinase still bound, per cent of control",AKT2 (human),100%
same,"kinase still bound, per cent of control",AURKC (human),68%
same,"kinase still bound, per cent of control",CDC42BPG (human),86%
same,per cent of control,CDK13 (human),100%
same,per cent of control,CDK2 (human),69%
same,per cent of control,CDK3 (human),100%
same,per cent of control,CDKL5 (human),100%
same,"kinase still bound, per cent of control",CSK (human),15%
same,"kinase still bound, per cent of control",CSNK2A2 (human),3.5%
same,"kinase still bound, per cent of control",DMPK (human),0.55%
same,"kinase still bound, per cent of control",EPHA4 (human),36%
same,"kinase still bound, per cent of control",FER (human),64%
same,"kinase still bound, per cent of control",[1],7%
same,"kinase still bound, per cent of control",[2],27%
same,"kinase still bound, per cent of control",HIPK2 (human),0.9%
same,"kinase still bound, per cent of control",INSRR (human),100%
same,"kinase still bound, per cent of control",IRAK3 (human),12%
same,"kinase still bound, per cent of control",MAP2K1 (human),0.25%
same,"kinase still bound, per cent of control",MAP2K4 (human),3.4%
same,per cent of control,MAP3K12 (human),84%
same,"kinase still bound, per cent of control",MAP3K6 (human),85%
same,"kinase still bound, per cent of control",MUSK (human),100%
same,"kinase still bound, per cent of control",MYO3B (human),19%
same,"kinase still bound, per cent of control",NTRK3 (human),49%
same,"kinase still bound, per cent of control",PHKG2 (human),12%
same,"kinase still bound, per cent of control",PIK3C2B (human),5.6%
same,"kinase still bound, per cent of control",PLK4 (human),2.6%
same,per cent of control,PRKACA (human),47%
same,"kinase still bound, per cent of control",PRKCH (human),10%
same,"kinase still bound, per cent of control",[3],12%
same,"kinase still bound, per cent of control",RIPK1 (human),100%
same,"kinase still bound, per cent of control",RPS6KB1 (human),57%
same,"kinase still bound, per cent of control",SIK3 (human),20%
same,"kinase still bound, per cent of control",SLK (human),0.2%
same,"kinase still bound, per cent of control",SNRK (human),100%
same,"kinase still bound, per cent of control",VRK2 (human),100%
COC(=O)Nc1ccc(-c2nc(N3CCOCC3)c3cnn(C4CCN(C(=O)OC)CC4)c3n2)cc1,"kinase still bound, per cent of control",ACVRL1 (human),100%
same,"kinase still bound, per cent of control",AKT2 (human),100%
same,"kinase still bound, per cent of control",AURKC (human),100%
same,"kinase still bound, per cent of control",CDC42BPG (human),100%
same,per cent of control,CDK13 (human),100%
same,per cent of control,CDK2 (human),91%
same,per cent of control,CDK3 (human),100%
same,per cent of control,CDKL5 (human),100%
same,"kinase still bound, per cent of control",CPK1 (P.falciparum),100%
same,"kinase still bound, per cent of control",CSK (human),98%
same,"kinase still bound, per cent of control",CSNK1G2 (human),98%
same,"kinase still bound, per cent of control",CSNK2A2 (human),83%
same,"kinase still bound, per cent of control",DMPK (human),100%
same,"kinase still bound, per cent of control",EPHA4 (human),88%
same,"kinase still bound, per cent of control",FER (human),100%
same,"kinase still bound, per cent of control",[1],100%
same,"kinase still bound, per cent of control",[2],93%
same,"kinase still bound, per cent of control",HIPK2 (human),65%
same,"kinase still bound, per cent of control",INSRR (human),100%
same,"kinase still bound, per cent of control",IRAK3 (human),79%
same,"kinase still bound, per cent of control",MAP2K1 (human),100%
same,"kinase still bound, per cent of control",MAP2K4 (human),74%
same,per cent of control,MAP3K12 (human),97%
same,"kinase still bound, per cent of control",MAP3K6 (human),95%
same,"kinase still bound, per cent of control",MUSK (human),100%
same,"kinase still bound, per cent of control",MYO3B (human),97%
same,"kinase still bound, per cent of control",NTRK3 (human),100%
same,"kinase still bound, per cent of control",PHKG2 (human),86%
same,"kinase still bound, per cent of control",PIK3C2B (human),100%
same,"kinase still bound, per cent of control",[4],6.8%
same,"kinase still bound, per cent of control",[5],6.8%
same,"kinase still bound, per cent of control",PLK4 (human),100%
same,per cent of control,PRKACA (human),100%
same,"kinase still bound, per cent of control",PRKCH (human),92%
same,"kinase still bound, per cent of control",[3],100%
same,"kinase still bound, per cent of control",RIPK1 (human),100%
same,"kinase still bound, per cent of control",RPS6KB1 (human),86%
same,"kinase still bound, per cent of control",SIK3 (human),83%
same,"kinase still bound, per cent of control",SLK (human),70%
same,"kinase still bound, per cent of control",SNRK (human),100%
same,"kinase still bound, per cent of control",VRK2 (human),100%
CCC(=O)N1CCN(c2ccc(-n3c(=O)ccc4cnc5ccc(-c6cnc7ccccc7c6)cc5c43)cc2C(F)(F)F)CC1,"kinase still bound, per cent of control",ACVRL1 (human),83%
same,"kinase still bound, per cent of control",AKT2 (human),100%
same,"kinase still bound, per cent of control",AURKC (human),91%
same,"kinase still bound, per cent of control",CDC42BPG (human),1.6%
same,per cent of control,CDK13 (human),80%
same,per cent of control,CDK2 (human),6.2%
same,per cent of control,CDK3 (human),100%
same,per cent of control,CDKL5 (human),100%
same,"kinase still bound, per cent of control",CPK1 (P.falciparum),36%
same,"kinase still bound, per cent of control",CSK (human),71%
same,"kinase still bound, per cent of control",CSNK1G2 (human),100%
same,"kinase still bound, per cent of control",CSNK2A2 (human),11%
same,"kinase still bound, per cent of control",DMPK (human),77%
same,"kinase still bound, per cent of control",EPHA4 (human),90%
same,"kinase still bound, per cent of control",[1],16%
same,"kinase still bound, per cent of control",[2],23%
same,"kinase still bound, per cent of control",HIPK2 (human),58%
same,"kinase still bound, per cent of control",INSRR (human),100%
same,"kinase still bound, per cent of control",IRAK3 (human),27%
same,"kinase still bound, per cent of control",MAP2K1 (human),100%
same,"kinase still bound, per cent of control",MAP2K4 (human),30%
same,per cent of control,MAP3K12 (human),100%
same,"kinase still bound, per cent of control",MAP3K6 (human),100%
same,"kinase still bound, per cent of control",MUSK (human),100%
same,"kinase still bound, per cent of control",MYO3B (human),100%
same,"kinase still bound, per cent of control",NTRK3 (human),100%
same,"kinase still bound, per cent of control",PHKG2 (human),100%
same,"kinase still bound, per cent of control",PIK3C2B (human),25%
same,"kinase still bound, per cent of control",[4],8.6%
same,"kinase still bound, per cent of control",[5],6.8%
same,"kinase still bound, per cent of control",PLK4 (human),100%
same,per cent of control,PRKACA (human),79%
same,"kinase still bound, per cent of control",PRKCH (human),92%
same,"kinase still bound, per cent of control",[3],69%
same,"kinase still bound, per cent of control",RIPK1 (human),1.9%
same,"kinase still bound, per cent of control",SIK3 (human),89%
same,"kinase still bound, per cent of control",SLK (human),94%
same,"kinase still bound, per cent of control",SNRK (human),60%
same,"kinase still bound, per cent of control",VRK2 (human),100%
